Columns and labels:
[1] = system: Snu-16 gastric cancer cells (FGFR2 gene amplification); assay: Cell proliferation assay (Cell Titer Glo), Snu-16; assay type: cell-based; details: Homo sapiens, SNU-16, 72 h, Snu-16 cells, 3 days, CTG; read-out: Cellular IC50 (nM) Sun16
Method: (§1) II. Cell Proliferation Assay (Cell Titer Glo(CTG) Assay)
(§2) The FGFR signal pathway dependent inhibitory effect of the compound in the present invention on cell proliferation was assessed by survival test using CTG reagent (Promega, 4G7573). Cell lines representative of a variety of tumor types, including H1581 lung cancer cells (FGFR1 gene amplification), Snu-16 gastric cancer cells (FGFR2 gene amplification), and RT112 bladder carcinoma cells (FGFR3-TACC3 fusion) from Nanjing Cobioer Biosciences, were selected for the assay. The specific experimental procedure was as follows: • 1. 90 μL of cells were seeded into a 96-well plate processed with TCM (Costar 43904), and incubated overnight at 37° C. in a 5% CO2 incubator; afterwards, 10 μL of the culture medium containing the compound at 10 fold of its final concentration was added; • 2. The dose-dependent effect was evaluated by a serial dilution of the test compound, starting from 10 μM or a lower concentration. • 3. The cells were incubated at 37° C. under 5% C02 for 3 days, then added 50 μL CTG, and read the data with Envision (Pelkin Elmer) to quantify the ATP level in the cells. The ATP levels in cells with treatment of inhibitor at a variety of concentrations were compared with those in cells of the control group (in which DMSO was added into the medium) to evaluate the compound percent inhibition of cell proliferation/survival. • 4. The compound half growth inhibitory concentration (IC50) was determined in Graphpad Prism by 4-parameter curve fitting.

[2] = system: H1581 lung cancer cells (FGFR1 gene amplification); assay: Cell proliferation assay (Cell Titer Glo), H1581; assay type: cell-based; details: Homo sapiens, NCI-H1581, 72 h, 3 days, CTG, read-out: Cellular IC50 (nM) H1581
Method: as §1, §2

Row | IC50 [1] | IC50 [2] | SMILES
1 | 50 to 500 nM | > 500 nM | CCn1c(=O)c(-c2c(Cl)c(OC)cc(OC)c2Cl)cc2cnc(-c3ccc(C4(C#N)CCC4)nc3)cc21 [Example 12, 1-(5-(3-(2,6-dichloro-3,5-dimethoxyphenyl)-1-ethyl-2-oxo-1,2-dihydro-1,6-naphthyridin-7-yl)pyridin-2-yl)cyclobutane-1-carbonitrile]
2 | 50 to 500 nM | > 500 nM | COc1cc(OC)c(Cl)c(-c2cc3cnc(-c4ccc(C5(C#N)CCC5)nc4)cc3n(C)c2=O)c1Cl [Example 20, 1-(5-(3-(2,6-dichloro-3,5-dimethoxyphenyl)-1-methyl-2-oxo-1,2-dihydro-1,6-naphthyridin-7-yl)pyridin-2-yl)cyclobutane-1-carbonitrile]
3 | 50 to 500 nM | 50 to 500 nM | CCn1c(=O)c(-c2c(Cl)c(OC)cc(OC)c2Cl)cc2cnc(-c3cn(CCC#N)nc3C)cc21 [Example 44, 3-(4-(3-(2,6-dichloro-3,5-dimethoxyphenyl)-1-ethyl-2-oxo-1,2-dihydro-1,6-naphthyridin-7-yl)-3-methyl-1H-pyrazol-1-yl)propanenitrile]
4 | 10 to 50 nM | 50 to 500 nM | CCn1c(=O)c(-c2c(Cl)c(OC)cc(OC)c2Cl)cc2cnc(-c3cn(CCN(C)C)nc3C)cc21 [Example 45, 3-(2,6-dichloro-3,5-dimethoxyphenyl)-7-(1-(2-(dimethylamino)ethyl)-3-methyl-1H-pyrazol-4-yl)-1-ethyl-1,6-naphthyridin-2(1H)-one]
5 | 50 to 500 nM | 50 to 500 nM | CCn1c(=O)c(-c2c(Cl)c(OC)cc(OC)c2Cl)cc2cnc(-c3cnn(CCN4CCOCC4)c3C)cc21 [Example 49, 3-(2,6-dichloro-3,5-dimethoxyphenyl)-1-ethyl-7-(5-methyl-1-(2-morpholinoethyl)-1H-pyrazol-4-yl)-1,6-naphthyridin-2(1H)-one]
6 | > 500 nM | > 500 nM | CCn1c(=O)c(-c2c(Cl)c(OC)cc(OC)c2Cl)cc2cnc(-c3cnn(CC#N)c3C)cc21 [Example 50, 2-(4-(3-(2,6-dichloro-3,5-dimethoxyphenyl)-1-ethyl-2-oxo-1,2-dihydro-1,6-naphthyridin-7-yl)-5-methyl-1H-pyrazol-1-yl)acetonitrile]
7 | 50 to 500 nM | > 500 nM | CCn1c(=O)c(-c2c(Cl)c(OC)cc(OC)c2Cl)cc2cnc(-c3cnn(CCC#N)c3C)cc21 [Example 51, 3-(4-(3-(2,6-dichloro-3,5-dimethoxyphenyl)-1-ethyl-2-oxo-1,2-dihydro-1,6-naphthyridin-7-yl)-5-methyl-1H-pyrazol-1-yl)propanenitrile]
8 | 50 to 500 nM | > 500 nM | CCn1c(=O)c(-c2c(Cl)c(OC)cc(OC)c2Cl)cc2cnc(-c3cnn(CCN(C)C)c3C)cc21 [Example 52, 3-(2,6-dichloro-3,5-dimethoxyphenyl)-7-(1-(2-(dimethylamino)ethyl)-5-methyl-1H-pyrazol-4-yl)-1-ethyl-1,6-naphthyridin-2(1H)-one]

The remaining lines, values behind:

Row | SMILES | IC50 [1] | IC50 [2]
9 | COc1cc(OC)c(Cl)c(-c2cc3cnc(-c4cnn(C)c4)cc3n(C3CCOCC3)c2=O)c1Cl [Example 17, 3-(2,6-dichloro-3,5-dimethoxyphenyl)-7-(1-methyl-1H-pyrazol-4-yl)-1-(tetrahydro-2H-pyran-4-yl)-1,6-naphthyridin-2(1H)-one] | 5 to 10 nM | 50 to 500 nM
10 | COc1cc(OC)c(Cl)c(-c2cc3cnc(-c4cnn(C)c4)cc3n(C3CCOC3)c2=O)c1 (centres unmarked) [Example 24, 3-(2-chloro-3,5-dimethoxyphenyl)-7-(1-methyl-1H-pyrazol-4-yl)-1-(tetrahydrofuran-3-yl)-1,6-naphthyridin-2(1H)-one] | 10 to 50 nM | 50 to 500 nM
11 | COc1cc(OC)c(F)c(-c2cc3cnc(-c4cnn(C)c4)cc3n(C(C)C)c2=O)c1F [Example 26, 3-(2,6-difluoro-3,5-dimethoxyphenyl)-1-isopropyl-7-(1-methyl-1H-pyrazol-4-yl)-1,6-naphthyridin-2(1H)-one] | 10 to 50 nM | 10 to 50 nM
12 | COc1cc(OC)c(F)c(-c2cc3cnc(-c4cnn(CCN5CCOCC5)c4)cc3n(CC3CC3)c2=O)c1F [Example 31, 1-(cyclopropylmethyl)-3-(2,6-difluoro-3,5-dimethoxyphenyl)-7-(1-(2-morpholinoethyl)-1H-pyrazol-4-yl)-1,6-naphthyridin-2(1H)-one] | 10 to 50 nM | 50 to 500 nM
13 | COc1cc(OC)c(F)c(-c2cc3cnc(-c4cccnc4)cc3n(C3CCOC3)c2=O)c1F (centres unmarked) [Example 36, 3-(2,6-difluoro-3,5-dimethoxyphenyl)-7-(pyridin-3-yl)-1-(tetrahydrofuran-3-yl)-1,6-naphthyridin-2(1H)-one] | 10 to 50 nM | 50 to 500 nM
14 | COc1cc(OC)c(F)c(-c2cc3cnc(-c4cnccc4C)cc3n(C3CCOC3)c2=O)c1F (centres unmarked) [Example 37, 3-(2,6-difluoro-3,5-dimethoxyphenyl)-7-(4-methylpyridin-3-yl)-1-(tetrahydrofuran-3-yl)-1,6-naphthyridin-2(1H)-one] | 50 to 500 nM | > 500 nM
15 | COc1cc(OC)c(F)c(-c2cc3cnc(-c4ccc(N5CC6CC5CO6)nc4)cc3n(C3CCOC3)c2=O)c1F (centres unmarked) [Example 38, 7-(6-(2-oxa-5-azabicyclo[2.2.1]heptan-5-yl)pyridin-3-yl)-3-(2,6-difluoro-3,5-dimethoxyphenyl)-1-(tetrahydrofuran-3-yl)-1,6-naphthyridin-2(1H)-one] | ≤ 5 nM | 10 to 50 nM
16 | COc1cc(OC)c(F)c(-c2cc3cnc(-c4ccncc4)cc3n(C3CCOC3)c2=O)c1F (centres unmarked) [Example 39, 3-(2,6-difluoro-3,5-dimethoxyphenyl)-7-(pyridin-4-yl)-1-(tetrahydrofuran-3-yl)-1,6-naphthyridin-2(1H)-one] | 50 to 500 nM | 50 to 500 nM
17 | COc1cc(OC)c(F)c(-c2cc3cnc(-c4ccc(CC#N)cc4)cc3n(C3CCOC3)c2=O)c1F (centres unmarked) [Example 41, 2-(4-(3-(2,6-difluoro-3,5-dimethoxyphenyl)-2-oxo-1-(tetrahydrofuran-3-yl)-1,2-dihydro-1,6-naphthyridin-7-yl)phenyl)acetonitrile] | 50 to 500 nM | 50 to 500 nM
18 | CCn1c(=O)c(-c2c(Cl)c(OC)cc(OC)c2Cl)cc2cnc(-c3cn(CCN4CCOCC4)nc3C)cc21 [Example 42, 3-(2,6-dichloro-3,5-dimethoxyphenyl)-1-ethyl-7-(3-methyl-1-(2-morpholinoethyl)-1H-pyrazol-4-yl)-1,6-naphthyridin-2(1H)-one] | 10 to 50 nM | 50 to 500 nM
19 | COc1cc(OC)c(Cl)c(-c2cc3cnc(-c4cn(CCN5CCOCC5)nc4C)cc3n(C)c2=O)c1Cl [Example 47, 3-(2,6-dichloro-3,5-dimethoxyphenyl)-1-methyl-7-(3-methyl-1-(2-morpholinoethyl)-1H-pyrazol-4-yl)-1,6-naphthyridin-2(1H)-one] | 50 to 500 nM | 50 to 500 nM

— patent US12351576B2, “FGFR inhibitor, preparation method therefor and application thereof” (Abbisko Therapeutics Co., Ltd., priority 2018, dated 2025)
